The text below walks through data of US20230263826A1, “Compositions and Methods for Treatment and Prevention of Type 1 Diabetes” (The UAB Research Foundation, priority 2021, published 2023).

Experiment [1] relates to female NOD mice. As to the kind of experiment: Islet infiltration and islet immune cell phenotype (H&E, CD4+ T cell and B220 staining of pancreas sections). Particulars: 8-week regimen group. Type of experiment: in vivo, mouse. How it is done:
(§1) FIGS. 1A-1M show the effects of temporal FKGK18 regimen on T1D incidence and islet phenotype, wherein female NOD mice were administered FKGK18 (20 mg/kg, 3 × weekly) or vehicle (PBS-T) starting at 4 or 8 weeks of age. FIGS. 1A and 1B show diabetes incidence; blood glucose was monitored weekly in the 4-week (FIG. 1A; n = 17 and 15 for PBS-T and FKGK18 groups, respectively) and 8-week (FIG. 1B; n = 15 each in the PBS-T and FKGK18 groups) regimen groups for up to 30 weeks. Two consecutive readings of ≥ 275 mg/dL were recorded as onset of T1D (^†P < 0.05). FIGS. 1C-1F show glucose tolerance test (GTT) results, wherein overnight fasted mice were administered glucose (2 g/kg, i.p.), glucose levels in blood from tail vein were monitored over a 2-hour period, and AUC were generated. FIGS. 1C and 1D show four-week group at 14 weeks of age; n = 5 each in the PBS-T and FKGK18 groups. FIGS. 1E and 1F show eight-week group at 25 weeks of age; n = 7 and 5 for PBS-T and FKGK18 groups, respectively. FIGS. 1G-1I show phenotype parameters in the 8-week regimen group. […] FIGS. 1H and 1I show β Cell mass (PBS-T, n = 15; FKGK18, n = 14) (FIG. 1H) and circulating insulin (n = 15 in each group) (FIG. 1I) were determined at sacrifice (PBS-T, 14-30 weeks of age; FKGK18, 16-36 weeks of age). FIGS. 1J and 1K show islet infiltration; paraffin sections (10 µm) of pancreas were prepared and stained with H&E. Percent infiltration for each islet was calculated as the value of noninfiltrated area subtracted from total islet area (% infiltrate = 100 × [(total area - noninfiltrated area)/(total area)]) using ImageJ software. (PBS-T, n = 14 and 166 islets; FKGK18, n = 15 and 260 islets). […]
Blood glucose levels were measured weekly via tail vein blood draw (2 µL) with Breeze 2 Blood Glucose Monitoring System (Bayer HealthCare). Diabetes incidence was based on 2 consecutive blood glucose readings ≥ 275 mg/dL, at which time the mouse was euthanized. […] Pancreas section and islet images were captured on an Olympus IX81 microscope using cellSens Dimension software and analyzed using ImageJ software (NIH).

In experiment [2] the test system is female NOD mice. As to the kind of experiment: β cell mass and circulating insulin at sacrifice in FKGK18-treated NOD mice. Type of experiment: in vivo, mouse. The note with it: 8-week regimen group. The protocol: as §1, with “generated.” for “generated. FIGS. 1C and 1D show four-week group at 14 weeks of age; n = 5 each in the PBS-T and FKGK18 groups. FIGS. 1E and 1F show eight-week group at 25 weeks of age; n = 7 and 5 for PBS-T and FKGK18 groups, respectively. FIGS. 1G-1I show phenotype parameters in the 8-week regimen group.”, “software.” for “software. (PBS-T, n = 14 and 166 islets; FKGK18, n = 15 and 260 islets).”

Consider `O=C(CCCCc1ccc2ccccc2c1)C(F)(F)F` [FKGK18], for which, in experiment [1], the “pancreatic islet abundance of B cells relative to PBS-T” value is “significantly reduced” and the “pancreatic islet abundance of CD4+ T cells relative to PBS-T” value is “significantly reduced”. In addition, the “islet infiltration vs PBS-T” value in experiment [1] (H&E pancreas sections) is “reduced”. The “β cell mass vs PBS-T” value in experiment [2] is “similar”. Further, the “circulating insulin vs PBS-T” value in experiment [2] (nonfasting) is on record as “higher”.
